Laboratory results: article PMC7170385, “The selenium-containing drug ebselen potently disrupts LEDGF/p75-HIV-1 integrase interaction by targeting LEDGF/p75” (Journal of Enzyme Inhibition and Medicinal Chemistry, 2020)
Read-outs that look alike come from different tables or passages of the source.

Tests used:
LEDGF/p75-IN interaction = system: LEDGF/p75-IN interaction; design: method as in PMID 21222490; settings: cited from earlier work
[1] = design: method as in PMID 26810656; settings: previous study; read-out: half-maximal cytotoxic concentration (CC50); cited from earlier work
[2] = biological target: Trypanosoma brucei hexokinase 1; design: method as in Gordhan et al.[47]; settings: ref Gordhan et al.[47]; cited from earlier work
HIV-1 = system: HIV-1; design: method as in PMID 26810656; settings: previous study; read-out: 50% effective concentration (EC50), replication of HIV-1; cited from earlier work
[3] = biological target: Cryptosporidium parvum Inosine 5′-monophosphate dehydrogenase; design: method as in Sarwono et al.[54]; settings: ref Sarwono et al.[54]; cited from earlier work
[4] = system: C-terminal domain of HIV-1 capsid; design: method as in Thenin-Houssier et al.[39]; settings: ref Thenin-Houssier et al.[39]; cited from earlier work
LEDGF/p75 = LEDGF/p75 (Homo sapiens, UniProt O75475); assay: Biolayer interferometry (BLI) binding assay
Procedure: A protein binding assay was performed by biolayer interferometry (BLI) as described previously. First, purified recombinant LEDGF/p75 protein was biotinylated using the Thermo EZLink long-chain biotinylation reagent. Then, biolayer interferometry (BLI) assay was performed using an OctetRED96 instrument from PALL/ForteBio. All assays were run at 30 °C with continuous 1000 rpm shaking. PBS with 0.01% Tween-20 was used as the assay buffer. Briefly, biotinylated LEDGF/p75 protein was tethered on Super Streptavidin (SSA) biosensors (ForteBio) by dipping sensors into 200 µl per well 50 µg/ml protein solutions. The measurement processes were all under computer control. Programme procedures were established as follows: For the initial step, biosensors were washed in assay buffer for 300 s to form a baseline; the biosensors labelled with biotin-LEDGF/p75 were exposed to 100 µM compounds for association, and were monitored for 600 s; and then, the biosensors were moved back into assay buffer to disassociate for another 1800s. Data were fit globally and generated automatically by Octet User software (version 9.0.0.10; Fortebio).

[5] = system: Escherichia coli thioredoxin reductase; design: method as in Lu et al.[48]; settings: cell marked (Ki); ref Lu et al.[48]; cited from earlier work
[6] = biological target: Cryptosporidium parvum glucose-6-phosphate isomerase; design: method as in Eltahan et al.[46]; settings: ref Eltahan et al.[46]; cited from earlier work
[7] = system: Mycobacterium tuberculosis antigen 85; design: method as in Favrot et al.[52]; settings: ref Favrot et al.[52]; cited from earlier work
[8] = system: Tumor marker endothelial 8 and protective antigen interaction; settings: cited from earlier work
[9] = biological target: New Delhi metallo-β-lactamase; design: method as in Chiou et al.[51]; settings: ref Chiou et al.[51]; cited from earlier work
[10] = biological target: T1, LEDGF/p75 IBD-HIV-1 IN interaction (Homo sapiens, UniProt O75475); assay: HTRF-based LEDGF/p75 IBD-IN interaction assay
T1 sequence (O75475 347-429 limits assumed): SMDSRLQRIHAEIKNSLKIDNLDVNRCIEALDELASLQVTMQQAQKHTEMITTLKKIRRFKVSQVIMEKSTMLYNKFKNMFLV

[11] = system: Pseudomonas aeruginosa Diguanylate Cyclases; design: method as in Lieberman et al.[55]; settings: ref Lieberman et al.[55]; cited from earlier work
[12] = system: Clostridium difficile cysteine protease domain; design: method as in Bender et al.[50]; settings: ref Bender et al.[50]; cited from earlier work
[13] = biological target: Bacillus anthracis thioredoxin reductase; settings: ref Gustafsson et al.[49]; cited from earlier work
[14] = system: Hepatitis C Virus NS3 Helicase-Nucleic Acid interaction; design: method as in Mukherjee et al.[53]; settings: ref Mukherjee et al.[53], cited from earlier work

LEDGF/p75, sequence (O75475 whole entry): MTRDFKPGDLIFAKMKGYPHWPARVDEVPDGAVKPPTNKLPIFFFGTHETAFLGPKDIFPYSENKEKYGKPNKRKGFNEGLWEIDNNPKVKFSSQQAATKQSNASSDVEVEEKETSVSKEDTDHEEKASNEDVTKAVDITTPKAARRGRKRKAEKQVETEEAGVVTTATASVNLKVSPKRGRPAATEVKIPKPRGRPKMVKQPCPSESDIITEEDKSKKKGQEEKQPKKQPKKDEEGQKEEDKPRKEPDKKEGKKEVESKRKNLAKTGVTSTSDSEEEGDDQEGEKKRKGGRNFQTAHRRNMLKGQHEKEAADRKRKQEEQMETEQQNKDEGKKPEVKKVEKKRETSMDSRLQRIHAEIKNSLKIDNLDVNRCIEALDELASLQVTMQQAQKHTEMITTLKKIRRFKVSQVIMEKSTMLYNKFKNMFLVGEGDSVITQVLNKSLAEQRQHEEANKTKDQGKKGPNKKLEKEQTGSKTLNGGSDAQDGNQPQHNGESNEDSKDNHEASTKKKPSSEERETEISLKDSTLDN

## O[C@@H](CS)[C@@H](O)CS (racemic) [DTT, dithiothreitol]
LEDGF/p75-IN interaction; at 50 µM
  Inhibitory effect of DTT on LEDGF/p75-IN interaction: negligible
LEDGF/p75-IN interaction
  IC50: 4.5 mM

## O=c1c2ccccc2[se]n1-c1ccccc1 [Compound 1, 2-phenyl-1,2-benzisoselenazol-3-one]
[1]
  CC50: 25.4 µM
[2]
  IC50: 50 nM
HIV-1
  EC50: 1990 nM
[3]
  IC50: 710 nM
[4]
  IC50: 47 nM
LEDGF/p75; BLI Octet Red, biotinylated LEDGF/p75, 30 °C
  Kd: 13.3 nM
LEDGF/p75; BLI, dissociation in assay buffer 1800 s
  Dissociation from LEDGF/p75: do not show obvious dissociation
[5]
  Ki: 520 nM
[6]
  IC50: 8.33 µM
[7]
  IC50: 63 nM
[8]
  IC50: 1700 nM
[9]
  IC50: 380 nM
[10]
  IC50: 7700 nM
[10]; IBD pre-incubated with ebselen
  HTRF signal when IBD was pre-incubated with compound: dramatical decrease
[10]; IN pre-incubated with ebselen
  HTRF signal when IN was pre-incubated with compound: no obvious signal change
[10]; in the presence of 50 µM dithiothreitol (DTT)
  Inhibitory effect on LEDGF/p75 IBD-IN interaction in the presence of DTT: completely abolished
[10]; over 1 h
  Time-dependent inhibition (change of affinity over time): increase in its affinity
[11]
  IC50: 5 µM
[12]
  IC50: 6.9 nM
[13]
  IC50: 1000 nM
[14]; first value of cell 1.1/0.9, difference not explained, read-out: IC50 (first of two values printed)
  IC50: 1100 nM
[14]; second value of cell 1.1/0.9, difference not explained, read-out: IC50 (second of two values printed)
  IC50: 900 nM

## COc1cc(/C=C/C(=O)CC(=O)/C=C/c2ccc(O)c(OC)c2)ccc1O [Compound 2, Curcumin]
[10]
  IC50: 14500 nM

## O=S(=O)(c1c(O)c(Cl)cc(Cl)c1Cl)c1c(O)c(Cl)cc(Cl)c1Cl [Compound 3, p38 MAP kinase inhibitor IV]
[10]
  IC50: 117000 nM

## CCN(CC)C(=S)SSC(=S)N(CC)CC [Disulfiram]
[10]
  IC50: 23200 nM

## NC(=O)CI [Iodoacetamide]
[10]; HTRF, 12-point dose-response 0.024 to 50 µM, His6-HIV-1 IN 50 nM, GST-IBD
  IC50: > 1e+07 nM

## CCN1C(=O)C=CC1=O [N-Ethylmaleimide]
[10]
  IC50: 566000 nM
